The source of these data is patent publication US6660283B2, “Use of cinnamic acid, or of at least one of its derivatives in a cosmetic composition” (Societe L'Oreal S.A., priority 1997, dated 2003).

This experiment deals with reconstructed human epidermis. The experiment is described as follows: Incorporation of 14C acetate into total lipids of reconstructed human epidermis (Skinethic). In kind it is cell-based. Conditions: for percentage of stimulation (incorporation of 14C acetate, lipid synthesis): relative to untreated cells = 100. How it is done:
The study is carried out by measuring the incorporation of carbon-14-labelled acetate in models of reconstructed human epidermis sold by the company Skinethic, in which the composition of total lipids is close to that of normal human epidermis.
The reconstructed human epidermis cultures are prepared according to the supplier's recommendations.
Cinnamic acid, at concentrations of 10^−5, 10^−6 and 10^−7 M, is placed in contact for 72 hours with reconstructed human epidermes after they have been cultured for 14 days under the conditions recommended by the supplier. The labelling with ^14C acetate (sodium [2-^14C]-acetate sold by Amersham, 59 mCi/mmol) is carried out 24 hours after placing the test product in contact with the culture, i.e. during the final 48 hours of culturing, at a rate of 0.5 μCi of ^14C acetate per culture.
At the end of culturing, after washing the epidermes with phosphate buffer (PBS), the epidermides are dissociated and the cells are lysed with 0.5M perchloric acid on ice. The lysates are then extracted with a methanol/chloroform mixture (2:1), centrifuged and the pellets obtained are extracted again under the same conditions as before. The lipids are separated out by addition of PBS and chloroform (Blight-Byer technique). The organic phase containing the lipids is taken off and the radioactive incorporated in this phase is determined by liquid scintillation. The organic phase is then dried under a stream of nitrogen. Thin layer plate chromatography on Merck K60 plates is carried out using, as eluent, a chloroform/methanol/water mixture (50/18/2.6) to separate the phospholipids, or a hexane/ether/acetic acid mixture (15/5.6/0.19) to separate the neutral lipids.
The plates are then autoradiographed for 24 hours and the chromatograms are analysed by densitometry using the One-D-Scan software from the company Scanalytics.
The results are evaluated relative to a control consisting of cells which have not been treated with cinnamic acid.
A positive control (10^−4 M trifluoperazine), which is known to stimulate lipid synthesis, and a negative control (10^−6 M retinoic acid), which is known to inhibit lipid synthesis, are introduced into the test as reference.

In the case of `O=C(O)C=Cc1ccccc1` [cinnamic acid], the “percentage of stimulation (incorporation of 14C acetate, lipid synthesis)” value (from here on “percentage of stimulation”) runs as follows: (10^−5 M, 72 hours contact) 113%; (10^−6 M, 72 hours contact) 109%; (10^−7 M, 72 hours contact) 124%. Besides, the “effect on incorporation of 14C acetate (lipid synthesis), in words” value (reconstructed human epidermis, 10^−5 to 10^−7 M) is “significantly stimulates”.
For `CC1=C(/C=C/C(C)=C/C=C/C(C)=C/C(=O)O)C(C)(C)CCC1` [retinoic acid, reference compound], where the note is “10^−6 M, 72 hours contact”, the “percentage of stimulation” value is on record as 82%.
For `CN1CCN(CCCN2c3ccccc3Sc3ccc(C(F)(F)F)cc32)CC1` [trifluoroperazine, trifluoperazine, reference compound], the “percentage of stimulation” value (10^−4 M) is listed as 122%.
